Source: patent publication US7186825B2, “Conformationally restricted polyamine analogs as disease therapies” (Cellgate, Inc., priority 1999, dated 2007)
Read-outs that look alike come from different tables or passages of the source.

What was measured:
Type in all cases: cell-based
[1] = system: human prostate cancer cells PC3; assay: MTT assay, survival/growth of cultured human prostate cancer cells PC3; conditions: Homo sapiens; for EC50: PC-3, 144 h, figure legends, survival of cultured PC3 cells, MTT, six days after drug treatment, read-out: ED50 (the source's name)
Method: (§1) Human breast cancer cell line MCF7 was grown in Richter's Improved Modified Eagle's Medium supplemented with 10% fetal bovine serum (FBS) and 2.2 g/L sodium bicarbonate. Human brain tumor cell line U251 MG-NCI was grown in Dulbecco's Modified Eagle's Medium supplemented with 10% FBS. Human lung cancer cell line A549 was grown in Ham's F-12K medium (Cellgro, Mediatech, Inc., VA), supplemented with 10% FBS and 2 mM L-glutamine. Human colon cancer cell line HT29 was cultured in McCoy's 5A medium (Gibco, BRL, Gaithersburg, Md.) supplemented with 10% FBS. Human prostate cancer cell lines PC-3, LNCAP and DuPro were grown in RPMI 1640 Medium (Cellgro, Mediatech, Inc., VA) supplemented with 10% FBS. Another human prostate cancer cell line DU145 was grown in Dulbecco's Modified Eagle's Medium (Gibco, BRL, Gaithersburg, Md.) supplemented with 5% FBS. The A549, MCF7, PC3, LNCAP and DuPro cell lines were cultured in 100 units/mL penicillin and 100 μg/mL streptomycin. HT29 and U251MG cell lines were grown in 50 μg/mL gentamycin (Gibco, BRL, Gaithersburg, Md.). DU145 cell line was maintained in 1% antibitic-antimycotic solution (Sigma, St. Louis, Mo.). The cell cultures were maintained at 37° C. in 5% CO2/95% humidified air. DuPro cells were obtained from M. Eileen Dolan, University of Chicago. All other cells are available from the American Type Culture Collection, Rockville, Md.
(§2) A conventional MTT assay was used to evaluate percent cell survival. Exponentially growing monolayer cells were plated in 96-well plates at a density of 500 cells per well and allowed to grow for 24 hours. Serial dilutions of the drugs were added to the wells. Six days after drug treatment, 25 μl of MTT solution (5 mg/ml) was added to each well and incubated for 4 hours at 37° C. Then 100 μl of lysis buffer (20% sodium dodecyl sulfate, 50% DMF, and 0.8% acetic acid, pH 4.7) was added to each well and incubated for an additional 22 hours. A microplate reader (“EMAX”-brand, Molecular Devices, Sunnyvale, Calif.) set at 570 nm was used to determine the optical density of the cultures. Results are expressed as a ratio of the optical density in drug-treated wells to the optical density in wells treated with vehicle only.
(§3) Using the protocols of Example 2, the porphyrin-polyamine conjugates were tested for activity in vitro in various cancer cell lines.

[2] = system: human prostate cancer cells DU145; assay: MTT assay, survival/growth of cultured human prostate cancer cells DU145; conditions: Homo sapiens; for EC50: DU-145, 144 h, figure legends, survival of cultured DU145 cells, MTT, six days after drug treatment, read-out: ED50 (the source's name); for IC50: DU-145
Method: as §1, §2, §3

[3] = system: human prostate cancer cells DUPRO; assay: MTT assay, survival/growth of cultured human prostate cancer cells DUPRO; conditions: Homo sapiens
Method: as §1, §2, §3

[4] = system: human colon cancer cells HT29; assay: MTT assay, survival/growth of cultured human colon cancer cells HT29; conditions: Homo sapiens; for IC50: read-out: concentration needed for 50% growth inhibition (ID50), Table 3, HT-29
Method: (§4) As shown in Table 3 and FIGS. 1–32, several novel conformationally restricted polyamine analogs were tested for anti-proliferative properties against cancer cells.
as §1, §2

[5] = system: human lung cancer cells A549; assay: MTT assay, survival/growth of cultured human lung cancer cells A549; conditions: Homo sapiens; for EC50: 144 h, figure legends, survival of cultured A549 cells, MTT, six days after drug treatment, read-out: ED50 (the source's name); for IC50: read-out: concentration needed for 50% growth inhibition (ID50), Table 3, A549
Method: as §4, §1, §2

[6] = system: human breast cancer cells MCF7; assay: MTT assay, survival/growth of cultured human breast cancer cells MCF7; conditions: Homo sapiens; for EC50: 144 h, figure legends, survival of cultured MCF7 cells, MTT, six days after drug treatment, read-out: ED50 (the source's name); for IC50: read-out: concentration needed for 50% growth inhibition (ID50), Table 3, MCF7
Method: as §4, §1, §2

[7] = system: human prostate cancer cells LNCAP; assay: MTT assay, survival/growth of cultured human prostate cancer cells LNCAP; conditions: Homo sapiens, 144 h, figure legends, survival of cultured LNCAP cells, six days after drug treatment, read-out: ED50 (the source's name)
Method: as §1, §2, §3

[8] = read-out: concentration needed for 50% growth inhibition (ID50), Table 3, PC-3
[9] = read-out: concentration needed for 50% growth inhibition (ID50), Table 3
[10] = 144 h, figure legends, survival of cultured DUPRO cells, MTT, six days after drug treatment, read-out: ED50 (the source's name)
[11] = read-out: concentration needed for 50% growth inhibition (ID50), Table 3, DUPRO

Row | Compound | EC50 [1] [µM] | IC50 [1, 8] [µM] | EC50 [2] [nM] | IC50 [2, 9] [µM] | EC50 [3, 10] [nM] | IC50 [3, 11] [µM] | IC50 [4] [nM] | EC50 [5] [µM] | IC50 [5] [µM] | EC50 [6] [µM] | IC50 [6] [µM] | IC50 [3, 10] [µM] | EC50 ([4]; HT-29, 144 h, figure legends, survival of cultured HT29 cells, MTT, six days after drug treatment, read-out: ED50 (the source's name)) [µM] | EC50 [7] [nM] | IC50 ([1]; Table 4, PC3, growth by MTT assay, read-out: IC50 (μM) in different cell lines) [µM] | IC50 ([2]; Table 4, DU145, growth by MTT assay, read-out: IC50 (μM) in different cell lines) [µM] | IC50 ([3]; Table 4, DUPRO, growth by MTT assay, read-out: IC50 (μM) in different cell lines) [µM]
1 | CCNCCCCNC/C=C\CNCCCCNCCCCNCC [SL-11122] | > 31.2 | > 31.2 | 80 | 0.8 | 560 | 0.56 | 800 | > 31.2 | > 31.2 | > 31.2 | > 31.2 | – | – | – | – | – | –
2 | CCNCCCCNC/C=C\CNC/C=C\CNCCCCNCC [SL-11123] | > 31.2 | > 31.2 | 510 | 0.51 | – | > 31.2 | 10400 | > 31.2 | > 31.2 | > 31.2 | > 31.2 | > 31.2 | – | – | – | – | –
3 | CCNC1CCCC1CNCCCNCC1CCCC1NCC (stereo not drawn) [SL-11124] | > 31.2 | > 31.2 | > 31200 | > 31.2 | > 31200 | > 31.2 | > 31200 | > 31.2 | > 31.2 | > 31.2 | > 31.2 | – | > 31.2 | – | – | – | –
4 | CCNC/C=C\CNC/C=C\CNCCCCNCCCCNCC [SL-11127] | > 31.2 | > 31.2 | 220 | 0.22 | 1300 | 1.3 | 2910 | – | – | – | – | – | – | – | – | – | –
5 | CCNC/C=C\CNC/C=C\CNCCCCNC/C=C\CNCC [SL-11129] | 1.7 | 1.7 | 320 | – | – | – | – | – | – | – | – | > 31.2 | – | – | – | – | –
6 | CCNC/C=C\CNC/C=C\CNC/C=C\CNCCCCNCC [SL-11130] | > 31.2 | > 31.2 | 430 | 0.43 | – | – | – | – | – | – | – | > 31.2 | – | – | – | – | –
7 | CCNCCCNCCCNCC1CCCC1NCC (stereo not drawn) [SL-11132] | > 31.2 | – | 15 | – | > 31200 | – | – | – | – | – | – | – | – | – | – | – | –
8 | CCNC/C=C\CNCCCCNC/C=C\CNCCCCNCC [SL-11133] | > 31.2 | – | 340 | – | – | – | – | – | – | – | – | 31.2 | – | – | – | – | –
9 | CCNCCCCNCCCCNCCCCNCCCCNCCO [SL-11141] | > 31.2 | – | 130 | – | 710 | – | – | – | – | – | – | – | – | 70 | – | – | –
10 | CCNCCCCNCCCCNCCCCNCCCCNC/C=C\CNCCCCNCCCCNCCCCNCCCCNCC [SL-11150] | – | – | 110 | – | 480 | – | – | – | – | – | – | – | – | 230 | – | – | –
11 | CCNCCCCNCCCCNCCCCNCCCC1=C(C)c2cc3[nH]c(cc4nc(cc5[nH]c(cc1n2)c(CCCNCCCCNCCCCNCCCCNCC)c5C)C(CC)=C4C)c(CC)c3C [SL-11202] | – | – | – | – | – | – | – | – | – | – | – | – | – | – | 1.15 | 4.6 | 1.3
